The record followed here is patent US20080292586A1 (priority 2005, published 2008).

≈ marks a conversion by molar mass, not a printed value.

Data set [1] relates to H5N1 Avian influenza virus (A/VN/1203/04). The experiment in a line: microbe, parasite or virus in culture. It counts as cell-based.
In data set [2] the test system is MDBK cells. Particulars: bovine.
Where [3] appears, read: Influenza A virus, H5N1, MDBK, 72 h.

One may read the IC25 as the point of the concentration-response curve where the effect stands at 25%. High values mean a need for much substance, low ones an effect from little substance. In general, IC50 refers to the concentration needed to halve the response being measured. A low value points to greater potency. Usually IC90 stands for the concentration needed for an effect of 90%. A lower IC90 goes with greater potency. Compound `NC(=O)c1ncn([C@@H]2O[C@H](CO)[C@@H](O)[C@H]2O)n1` [Ribavirin] yielded an IC25 in data set [1] of 1.01 µg/mL (≈ 4.14 µM). The same compound gave an IC50 in data set [1] (Influenza A virus, H5N1, MDBK) of 1.96 µg/mL (≈ 8.03 µM). In data set [1] (setting [3]), this compound returned an IC50 of 1.69 µg/mL (≈ 6.92 µM) and an IC90 of 5.01 µg/mL (≈ 20.5 µM). In data set [2], the “cytotoxicity profile (in words)” value is given as “toxic at concentrations above that which protected 80% of cells from H5N1 infection”.
